{
  "source": "paper PMC5587574",
  "about": "“Carbonyl reductase 1 catalyzes 20β-reduction of glucocorticoids, modulating receptor activation and metabolic complications of obesity” (Scientific Reports, 2017)",
  "target": "T1, Carbonyl reductase 1 (CBR1) (Homo sapiens, UniProt P16152)",
  "T1 construct": "recombinant human CBR1",
  "T1 sequence (P16152 2-277)": "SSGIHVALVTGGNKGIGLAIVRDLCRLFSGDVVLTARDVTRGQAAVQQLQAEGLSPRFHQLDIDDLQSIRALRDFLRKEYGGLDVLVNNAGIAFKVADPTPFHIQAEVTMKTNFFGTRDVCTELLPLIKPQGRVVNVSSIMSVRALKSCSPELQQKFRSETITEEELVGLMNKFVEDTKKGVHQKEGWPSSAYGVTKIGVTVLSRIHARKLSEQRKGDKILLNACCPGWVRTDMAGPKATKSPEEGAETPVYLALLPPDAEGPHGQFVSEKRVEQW",
  "test": "conversion by recombinant enzyme, LC-MS/MS",
  "assay_type": "biochemical",
  "data": [
    {"smiles": "C[C@]12CCC(=O)C=C1CC[C@@H]1[C@@H]2[C@@H](O)C[C@@]2(C)[C@H]1CC[C@]2(O)C(=O)CO", "note": "[F, cortisol]", "values": [
      {"measurement": "conversion by recombinant enzyme, LC-MS/MS", "result": "1.2 ± 0.4 ng/mg CBR1 protein per minute"}
    ]}
  ]
}
